Measurements from patent publication US6274715A, “Tricyclic erythromycin derivatives” (priority 1997, dated 2001).
≈ marks a conversion by molar mass, not a printed value.

What was measured:
Format in all cases: cell-based
[1] = tested on: STAPHYLOCOCCUS AUREUS NCTC10649M; experiment: In vitro antibacterial activity, MIC, BHI agar dilution; conditions: S. aureus NCTC10649M, unit assumed
CANDIDA ALBICANS CCH 442 = experiment: as above; conditions: C. albicans CCH 442, unit assumed
[2] = tested on: MYCOBACTERIUM SMEGMATIS ATCC 114; experiment: as above; conditions: M. smegmatis ATCC 114, unit assumed
[3] = tested on: PSEUDOMONAS AERUGINOSA K799/WT; experiment: as above; conditions: P. aeruginosa K799/WT, unit assumed
STR[…] 508 = experiment: as above; conditions: S. agalactiae CMX 508, unit assumed
In short: (§1)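 MIC was read visually as the lowest drug level with no growth, a slight haze or sparsely isolated colonies relative to a compound-free growth control. Organisms were spotted at 1:100 dilution (1:10 for slow-growing strains) onto Brain Heart Infusion agar containing serial compound dilutions and incubated 20 to 24 hours at 35-37° C.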

M[…] ATCC 9341 = experiment: as above; conditions: M. luteus ATCC 9341, unit assumed
In short: as §1

M[…] ATCC 4698 = experiment: as above; conditions: M. luteus ATCC 4698, unit assumed
In short: as §1

EN[…] ATCC 8043 = experiment: as above; conditions: E. faecium ATCC 8043, unit assumed
In short: as §1

[4] = tested on: PSEUDOMONAS AERUGINOSA BMH10; experiment: as above; conditions: P. aeruginosa BMH10, unit assumed
[5] = tested on: PSEUDOMONAS AERUGINOSA 5007; experiment: as above; conditions: P. aeruginosa 5007, unit assumed
[6] = tested on: STAPHYLOCOCCUS AUREUS CMX 642A; experiment: as above; conditions: S. aureus CMX 642A, unit assumed
[7] = tested on: PSEUDOMONAS AERUGINOSA DPHD-5263; experiment: as above; conditions: P. aeruginosa DPHD-5263, unit assumed
[8] = tested on: STAPHYLOCOCCUS AUREUS ATCC 6538P; experiment: as above; conditions: S. aureus ATCC 6538P, 35-37° C., 20 to 24 hours, unit assumed
[9] = tested on: PSEUDOMONAS AERUGINOSA DPHD-2862; experiment: as above; conditions: P. aeruginosa DPHD-2862, unit assumed
ESCHERICHIA COLI DC-2 = experiment: as above; conditions: E. coli DC-2, unit assumed
[10] = tested on: ACINETOBACTER CALCOACETICUS CMX 669; experiment: as above; conditions: A. calcoaceticus CMX 669, unit assumed
PSEUDOMONAS CEPACIA 296I = experiment: as above; conditions: P. cepacia 296I, unit assumed
[11] = tested on: STREPTOCOCCUS BOVIS A-5169; experiment: as above; conditions: S. bovis A-5169, unit assumed
[12] = tested on: STREPTOCOCCUS PYOGENES EES61; experiment: as above; conditions: S. pyogenes EES61, unit assumed
[13] = tested on: PSEUDOMONAS AERUGINOSA K799/61; experiment: as above; conditions: P. aeruginosa K799/61, unit assumed
[14] = tested on: ENTEROBACTER AEROGENES ATCC 13048; experiment: as above; conditions: E. aerogenes ATCC 13048, unit assumed
[15] = tested on: STAPHYLOCOCCUS AUREUS A-5278; experiment: as above; conditions: S. aureus A-5278, unit assumed
ESCHERICHIA COLI H560 = experiment: as above; conditions: E. coli H560, unit assumed
[16] = tested on: PROVIDENCIA STUARTII CMX 640; conditions: P. stuartii CMX 640; BHI agar; unit assumed
[17] = tested on: STREPTOCOCCUS PYOGENES PIU 2548; experiment: In vitro antibacterial activity, MIC, BHI agar dilution; conditions: S. pyogenes PIU 2548, unit assumed
[18] = tested on: STAPHYLOCOCCUS AUREUS A5177; experiment: as above
[19] = tested on: STREPTOCOCCUS PYOGENES 930; experiment: as above; conditions: S. pyogenes 930, unit assumed
ESCHERICHIA COLI KNK 437 = conditions: E. coli KNK 437; BHI agar; unit assumed
[20] = tested on: STAPHYLOCOCCUS AUREUS CMX 553; experiment: In vitro antibacterial activity, MIC, BHI agar dilution; conditions: S. aureus CMX 553, unit assumed
[21] = tested on: STAPHYLOCOCCUS AUREUS 1775; experiment: as above; conditions: S. aureus 1775, unit assumed
[22] = tested on: KLEBSIELLA PNEUMONIAE ATCC 8045; experiment: as above; conditions: K. pneumoniae ATCC 8045, unit assumed
[23] = tested on: STAPHYLOCOCCUS EPIDERMIDIS 3519; conditions: S. epidermidis 3519; BHI agar; unit assumed
ESCHERICHIA COLI SS = experiment: In vitro antibacterial activity, MIC, BHI agar dilution; conditions: E. coli SS, unit assumed

Row | Structure (SMILES) | MIC [1] | MIC (CANDIDA ALBICANS CCH 442) | MIC [2] | MIC [3] | MIC (STR[…] 508) | MIC (M[…] ATCC 9341) | MIC (M[…] ATCC 4698) | MIC (EN[…] ATCC 8043) | MIC [4] | MIC [5] | MIC [6] | MIC [7] | MIC [8] | MIC [9] | MIC (ESCHERICHIA COLI DC-2) | MIC [10] | MIC (PSEUDOMONAS CEPACIA 296I) | MIC [12] | MIC [14] | MIC [15] | other results
1 | CC[C@H]1OC(=O)[C@H](C)C[C@H](C)[C@@H](O[C@@H]2O[C@H](C)C[C@H](N(C)C)[C@H]2O)[C@](C)(OC)C[C@@H](C)C2=NCCN3C(=O)O[C@@]1(C)[C@H]3[C@H]2C [Example 1] | 6.2 µg/mL (≈ 9.94 µM) | > 100 µg/mL | 3.1 µg/mL (≈ 4.97 µM) | > 100 µg/mL | 0.39 µg/mL (≈ 0.625 µM) | 0.39 µg/mL (≈ 0.625 µM) | 0.39 µg/mL (≈ 0.625 µM) | 0.78 µg/mL (≈ 1.25 µM) | > 100 µg/mL | > 100 µg/mL | 6.2 µg/mL (≈ 9.94 µM) | 50 µg/mL (≈ 80.1 µM) | 6.2 µg/mL (≈ 9.94 µM) | > 100 µg/mL | 0.78 µg/mL (≈ 1.25 µM) | > 100 µg/mL | 12.5 µg/mL (≈ 20 µM) | 0.39 µg/mL (≈ 0.625 µM) | > 100 µg/mL | > 100 µg/mL | MIC [11]: 0.39 µg/mL (≈ 0.625 µM); MIC [13]: > 100 µg/mL; MIC (ESCHERICHIA COLI H560): 50 µg/mL (≈ 80.1 µM); MIC [16]: 100 µg/mL (≈ 160 µM); MIC [17]: 0.78 µg/mL (≈ 1.25 µM); MIC ([18]; S. aureus A5177): 6.2 µg/mL (≈ 9.94 µM); MIC [19]: > 100 µg/mL; MIC (ESCHERICHIA COLI KNK 437): 25 µg/mL (≈ 40.1 µM); MIC [20]: 6.2 µg/mL (≈ 9.94 µM); MIC [21]: > 100 µg/mL; MIC [22]: > 100 µg/mL; MIC [23]: 12.5 µg/mL (≈ 20 µM)
2 | CC[C@H]1OC(=O)[C@H](C)C(=O)[C@H](C)[C@@H](O[C@@H]2O[C@H](C)C[C@H](N(C)C)[C@H]2O)[C@](C)(OC)C[C@@H](C)C2=NC[C@@H](C)N3C(=O)O[C@@]1(C)[C@H]3[C@H]2C [Example 9] | 0.2 µg/mL (≈ 0.307 µM) | > 100 µg/mL | 3.1 µg/mL (≈ 4.76 µM) | 100 µg/mL (≈ 153 µM) | 0.01 µg/mL (≈ 0.0153 µM) | 0.1 µg/mL (≈ 0.153 µM) | 0.39 µg/mL (≈ 0.598 µM) | 0.05 µg/mL (≈ 0.0767 µM) | 100 µg/mL (≈ 153 µM) | > 100 µg/mL | 0.39 µg/mL (≈ 0.598 µM) | > 100 µg/mL | 0.39 µg/mL (≈ 0.598 µM) | > 100 µg/mL | 25 µg/mL (≈ 38.4 µM) | 12.5 µg/mL (≈ 19.2 µM) | > 100 µg/mL | 0.01 µg/mL (≈ 0.0153 µM) | 25 µg/mL (≈ 38.4 µM) | > 100 µg/mL | MIC [13]: 6.2 µg/mL (≈ 9.51 µM); MIC (ESCHERICHIA COLI H560): 25 µg/mL (≈ 38.4 µM); MIC [16]: > 100 µg/mL; MIC [17]: 0.39 µg/mL (≈ 0.598 µM); MIC ([18]; S. aureus A5177, unit assumed): 0.39 µg/mL (≈ 0.598 µM); MIC [19]: > 100 µg/mL; MIC (ESCHERICHIA COLI KNK 437): 100 µg/mL (≈ 153 µM); MIC [20]: 0.39 µg/mL (≈ 0.598 µM); MIC [21]: > 100 µg/mL; MIC [22]: 25 µg/mL (≈ 38.4 µM); MIC [23]: 0.39 µg/mL (≈ 0.598 µM)
3 | CC[C@H]1OC(=O)[C@H](C)C(=O)[C@H](C)[C@@H](O[C@@H]2O[C@H](C)C[C@H](N(C)C)[C@H]2O)[C@](C)(OC)C[C@@H](C)C2=NC[C@H](CO)N3C(=O)O[C@@]1(C)[C@H]3[C@H]2C [Example 63] | 0.78 µg/mL (≈ 1.17 µM) | > 100 µg/mL | 6.2 µg/mL (≈ 9.28 µM) | > 100 µg/mL | 0.2 µg/mL (≈ 0.299 µM) | 0.2 µg/mL (≈ 0.299 µM) | 0.78 µg/mL (≈ 1.17 µM) | 0.2 µg/mL (≈ 0.299 µM) | > 100 µg/mL | > 100 µg/mL | 1.56 µg/mL (≈ 2.34 µM) | > 100 µg/mL | 0.78 µg/mL (≈ 1.17 µM) | > 100 µg/mL | > 100 µg/mL | 100 µg/mL (≈ 150 µM) | > 100 µg/mL | 0.1 µg/mL (≈ 0.15 µM) | > 100 µg/mL | > 100 µg/mL | MIC (ESCHERICHIA COLI SS): 0.78 µg/mL (≈ 1.17 µM); MIC [11]: 0.05 µg/mL (≈ 0.0749 µM); MIC (ESCHERICHIA COLI H560): 50 µg/mL (≈ 74.9 µM); MIC [16]: > 100 µg/mL; MIC ([18]; S. aureus A5177, unit assumed): 0.78 µg/mL (≈ 1.17 µM); MIC [19]: > 100 µg/mL; MIC (ESCHERICHIA COLI KNK 437): > 100 µg/mL; MIC [20]: 1.56 µg/mL (≈ 2.34 µM); MIC [21]: > 100 µg/mL; MIC [22]: > 100 µg/mL; MIC [23]: 0.78 µg/mL (≈ 1.17 µM)
